Data: US8212016B2, “NPC1L1 orthologues” (Schering Corporation, priority 2006, dated 2012)
Where two headings read alike, the source gives them in different places.

How the values were obtained:
canine NPC1L1 = canine NPC1L1 (Canis lupus familiaris, UniProt A0MJA4); assay: Fluorescence NPC1L1 binding assay, HEK-293 cells, BODIPY-labeled compound 1
Method: (§1) Cell Culture and Membrane Preparation. Each plasmid pCR3.1 harboring NPC1L1 was prepared using standard molecular biology protocols. Stable cell lines expressing human, rhesus monkey, mouse, rat, hamster, canine or rabbit NPC1L1 were generated using Lipofectamine 2000 transfection reagent in HEK-293 cells according to the manufacturer's protocol. Cells were maintained in DMEM supplemented with 10% FBS, 100 U/ml pen/strep, and 500 μg/ml geneticin at 37° C., 5% CO2. All cell culture reagents were obtained from Invitrogen Life Technologies, (Carlsbad, Calif.). Cell membranes were prepared by lysing cells in 5 mM HEPES with protease inhibitors (Complete™ Protease Inhibitor Cocktail Tablets; Roche Diagnostics Corp., Indianapolis Ind.) for 15 min at 4° C. A membrane pellet was obtained by centrifuging the cell lysates at 12,000×g for 25 min. The membranes were resuspended in 5 mM HEPES with protease inhibitors and triturated with a 21G needle.
(§2) Fluorescence. Cells were plated into 384-well black/clear plates (BD Biosciences, Bedford Mass.) for binding experiments the following day. The media was aspirated. […] Media (20 μl) containing the indicated concentration of compound was then added to the wells. […] The binding reaction was allowed to proceed for 4 hours at 37° C. Subsequently the media was aspirated and the cells washed once with PBS.

hamster NPC1L1 = hamster NPC1L1 (Mesocricetus auratus, UniProt A0MJA8); assay: as above
Method: as §1, §2

human NPC1L1 [1] = biological target: T1, human NPC1L1 (Homo sapiens, UniProt Q9UHC9, T1073A); assay: as above; conditions: Human NPC1L1, competition with compound 1; read-out: Ki
T1 construct: expressed in transfected cells
T1 sequence (Q9UHC9 22-1332 isoform Q9UHC9-2 T1046A): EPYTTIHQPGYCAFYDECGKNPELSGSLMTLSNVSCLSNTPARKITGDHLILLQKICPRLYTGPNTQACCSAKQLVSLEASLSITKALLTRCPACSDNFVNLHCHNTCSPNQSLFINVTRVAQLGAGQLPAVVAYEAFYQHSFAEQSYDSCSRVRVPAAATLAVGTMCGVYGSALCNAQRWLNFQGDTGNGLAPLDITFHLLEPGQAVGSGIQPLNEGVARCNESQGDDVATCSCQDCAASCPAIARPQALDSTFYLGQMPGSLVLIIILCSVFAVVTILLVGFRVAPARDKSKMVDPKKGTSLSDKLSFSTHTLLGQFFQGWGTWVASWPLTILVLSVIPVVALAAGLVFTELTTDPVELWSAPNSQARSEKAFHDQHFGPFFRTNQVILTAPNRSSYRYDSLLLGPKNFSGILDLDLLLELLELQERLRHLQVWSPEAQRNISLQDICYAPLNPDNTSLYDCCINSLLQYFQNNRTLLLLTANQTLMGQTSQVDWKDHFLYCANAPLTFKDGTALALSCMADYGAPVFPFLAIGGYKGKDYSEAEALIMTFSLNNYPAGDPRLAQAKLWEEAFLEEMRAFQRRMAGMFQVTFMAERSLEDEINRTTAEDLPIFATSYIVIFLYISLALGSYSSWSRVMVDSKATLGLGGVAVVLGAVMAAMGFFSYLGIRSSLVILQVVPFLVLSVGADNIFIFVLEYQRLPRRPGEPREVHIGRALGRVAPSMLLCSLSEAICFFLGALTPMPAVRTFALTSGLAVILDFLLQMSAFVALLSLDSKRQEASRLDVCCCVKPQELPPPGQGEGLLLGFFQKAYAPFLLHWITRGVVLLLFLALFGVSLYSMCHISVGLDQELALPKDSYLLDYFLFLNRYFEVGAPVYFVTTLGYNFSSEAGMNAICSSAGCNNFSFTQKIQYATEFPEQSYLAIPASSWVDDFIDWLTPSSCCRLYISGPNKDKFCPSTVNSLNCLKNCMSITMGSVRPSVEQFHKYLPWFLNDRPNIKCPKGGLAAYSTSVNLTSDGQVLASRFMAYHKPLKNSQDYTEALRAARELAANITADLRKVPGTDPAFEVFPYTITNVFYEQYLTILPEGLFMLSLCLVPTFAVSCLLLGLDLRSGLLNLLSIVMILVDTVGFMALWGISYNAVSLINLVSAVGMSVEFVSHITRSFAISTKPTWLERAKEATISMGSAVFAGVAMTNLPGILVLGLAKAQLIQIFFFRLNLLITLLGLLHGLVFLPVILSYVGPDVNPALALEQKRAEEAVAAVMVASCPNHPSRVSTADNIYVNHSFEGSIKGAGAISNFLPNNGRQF
Method: as §1, §2

rabbit NPC1L1 = rabbit NPC1L1 (Oryctolagus cuniculus, UniProt A0MJA7); assay: as above
Method: as §1, §2

rat NPC1L1 = biological target: T2, rat NPC1L1 (Rattus norvegicus, UniProt Q6T3U3, A349V/E317P/G318E/K324N/L297S); assay: as above; conditions: Rat NPC1L1, competition with compound 1; read-out: Ki
T2 construct: expressed in transfected cells
Method: as §1, §2

human NPC1L1 [2] = biological target: T1, human NPC1L1; assay: Radioligand binding of [3H]-glucuronidated ezetimibe (compound 4) to cell membranes
Method: Cell Culture and Membrane Preparation. […] Cells were maintained in DMEM supplemented with 10% FBS, 100 U/ml pen/strep, and 500 μg/ml geneticin at 37° C., 5% CO2. All cell culture reagents were obtained from Invitrogen Life Technologies, (Carlsbad, Calif.). Cell membranes were prepared by lysing cells in 5 mM HEPES with protease inhibitors (Complete™ Protease Inhibitor Cocktail Tablets; Roche Diagnostics Corp., Indianapolis Ind.) for 15 min at 4° C. A membrane pellet was obtained by centrifuging the cell lysates at 12,000×g for 25 min. […] Radioligand. […] Natl. Acad. Sci. […] Reactions were performed in binding buffer (5 mM HEPES, 5.5 mM glucose, 117 mM NaCl and 5.4 mM KCl, pH 7.4). Cell membranes (50 μg in 20 μl) were added to each well. […] Binding reactions were incubated for 2 hours at 37° C. Samples were transferred to Unifilter-96 GF/C plates (Perkin Elmer, Wellesley Mass.) and filtered using a Brandel harvester (Gaithersburg Md.). […] Liquid scintillant (50 μl; Microscint-20, Perkin Elmer, Wellesley Mass.) was added and the bound radioactivity was measured using a microplate scintillation counter.

[3] = tested on: plasma and liver cholesterol; assay: Percent cholesterol lowering in plasma and liver; assay type: in vivo; conditions: hamster

Ki (canine NPC1L1; Canine NPC1L1, competition with compound 1, read-out: Ki): 192 nM
Ki (canine NPC1L1; Table 3, Dog, read-out: Ki Dog NPC1L1): 190 nM
Ki (hamster NPC1L1; Hamster NPC1L1, competition with compound 1, read-out: Ki): 370 nM
Ki (hamster NPC1L1; Table 3, Hamster, read-out: Ki Hamster NPC1L1): 371 nM
Ki (human NPC1L1 [1]): 660 nM
Ki (rabbit NPC1L1; Rabbit NPC1L1, competition with compound 1, read-out: Ki): 830 nM
Ki (rabbit NPC1L1; Table 3, Rabbit, read-out: Ki Rabbit NPC1L1): 830 nM
difference in affinity versus ezetimibe (compound 3) (rabbit NPC1L1; rabbit NPC1L1): less than 3 fold
Ki (rat NPC1L1): 352 nM
Kd (human NPC1L1 [2]): 206 nM
SMILES: O=C(O)[C@H]1O[C@@H](Oc2ccc([C@@H]3[C@@H](CC[C@H](O)c4ccc(F)cc4)C(=O)N3c3ccc(F)cc3)cc2)[C@H](O)[C@@H](O)[C@@H]1O [compound 4, glucuronidated ezetimibe]
cholesterol lowering Liver ([3]; liver): 92%
cholesterol lowering Plasma ([3]; plasma): 48%
